Test results as given in PMC4503722, “Novel Phenotypic Outcomes Identified for a Public Collection of Approved Drugs from a Publicly Accessible Panel of Assays” (PLoS ONE, 2015).

What was measured:
INS-1E cells = assay: cells; type: cell-based, rat; conditions: 5 mM glucose; for 5mMGluc_INS1E SecretionMod IC50/EC50: assay number 8;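 as to all read-outs here: secreted insulin quantified by homogeneous immunoassay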
NCI-H716 cells = assay: cells; type: cell-based, Human; conditions: assay number 12
[1] = test system: ECFC/ADSC co-culture cell nuclei number
DLD-1 = assay: cells; type: cell-based; conditions: assay number 23; basal
[2] = test system: HCT116 cells treated with a GSK3β inhibitor; assay: cells; type: cell-based; conditions: assay number 26; GSK3b inhibitor pretreated
SNU-C1 = assay: cells; type: cell-based; conditions: assay number 30; basal
RKO = assay: cells; type: cell-based; conditions: assay number 29; basal
HCT116 = assay: cells; type: cell-based; conditions: assay number 25; basal
Colo320 = assay: cells; type: cell-based; conditions: assay number 27; basal
SW480 = assay: cells; type: cell-based; conditions: assay number 24; basal
HT-29 = assay: cells; type: cell-based; conditions: assay number 28; basal

| Compound | 5mMGluc_INS1E SecretionMod IC50/EC50 (INS-1E cells) [µM] | further results |
| --- | --- | --- |
| CN(C)CC/C=C1\c2ccccc2Sc2ccc(Cl)cc21 [NCGC00013683-06] | > 33.33 | – |
| CN(C)CC[C@H](c1ccc(Cl)cc1)c1ccccn1 [NCGC00015227-08] | 17.749 | – |
| COc1ccc(Cl)cc1C(=O)NCCc1ccc(S(=O)(=O)NC(=O)NC2CCCCC2)cc1 [NCGC00015467-20] | – | IC50/EC50, 5mMGluc_INS1E SecretionMod (assay number 8) (INS-1E cells): 0.00808 µM |
| CN1CCN2c3ccccc3Cc3ccccc3C2C1 (stereo not drawn) [NCGC00015656-12] | > 11.11 | – |
| N=c1nc(N2CCCCC2)cc(N)n1O [NCGC00015673-13] | – | IC50/EC50, 5mMGluc_INS1E SecretionMod (assay number 8) (INS-1E cells): > 33.33 µM |
| CC(CCc1ccccc1)NC(C)C(O)c1ccc(O)cc1 (stereo not drawn) [NCGC00015716-09] | 14.4759 | – |
| COc1ccc(CN(CCN(C)C)c2ccccn2)cc1 [NCGC00015822-15] | – | IC50/EC50, 5mMGluc_INS1E SecretionMod (assay number 8) (INS-1E cells): 15.3614 µM |
| CN(C)CCCOc1nn(Cc2ccccc2)c2ccccc12.Cl [NCGC00016397-04] | – | IC50/EC50, 5mMGluc_INS1E SecretionMod (assay number 8) (INS-1E cells): 21.3864 µM |
| CC(=O)c1ccc2c(c1)N(CCCN(C)C)c1ccccc1S2 [NCGC00016634-04] | 11.3835 | – |
| CCCCOc1cc(C(=O)OCCN(CC)CC)ccc1N [NCGC00016667-04] | 15.5055 | – |
| O=C(CCCN1CCC(O)(c2ccc(Br)cc2)CC1)c1ccc(F)cc1 [NCGC00016692-05] | > 33.33 | – |
| COc1ccc2c(c1)C(=O)N(CCc1ccc(S(=O)(=O)NC(=O)NC3CCCCC3)cc1)C(=O)C2(C)C [NCGC00016819-05] | 0.2299 | – |
| CCC1=C(C)CN(C(=O)NCCc2ccc(S(=O)(=O)NC(=O)NC3CCC(C)CC3)cc2)C1=O (stereo not drawn) [NCGC00016960-07] | 0.00406 | – |
| COc1ccc2c(c1OC)C(=O)O[C@@H]2[C@H]1c2cc3c(cc2CCN1C)OCO3 [NCGC00017326-05] | > 33.33 | – |
| Clc1ccc(COC(Cn2ccnc2)c2ccc(Cl)cc2Cl)cc1.O=[N+]([O-])O (stereo not drawn) [NCGC00018258-10] | – | hNCI-H716 GLP1 Secretion IC50/EC50 (NCI-H716 cells): 25.6136 µM; VEGF_ADSC\ECFC Angio Hoechst NucArea IC50/EC50 [1]: 9.932 µM |
| CN(C)CCOC(C)(c1ccccc1)c1ccccn1.O=C(O)CCC(=O)O (stereo not drawn) [NCGC00021147-11] | > 33.33 | – |
| O=C1NCN(c2ccccc2)C12CCN(CCCOc1ccc(F)cc1)CC2 [NCGC00024633-07] | > 33.33 | Basal_Viability ATP DLD-1 IC50/EC50 (DLD-1): 0.8817 µM; GSK3b inh pretreated_Viability ATP HCT116 IC50/EC50 [2]: 5.333 µM; Basal_Viability ATP SNU-C1 IC50/EC50 (SNU-C1): 0.2416 µM; Basal_Viability ATP RKO IC50/EC50 (RKO): 5.3051 µM; Basal_Viability ATP HCT116 IC50/EC50 (HCT116): 8.82 µM; Basal_Viability ATP Colo 320 IC50/EC50 (Colo320): 11.821 µM; Basal_Viability ATP SW480 IC50/EC50 (SW480): 4.608 µM; Basal_Viability ATP HT-29 IC50/EC50 (HT-29): 2.458 µM |
| CCN(CC)CCOc1ccc(Cc2ccccc2)cc1 [NCGC00024762-04] | > 33.33 | – |
| CNCCCCOc1ccccc1Cc1ccccc1 [NCGC00024778-02] | > 33.33 | – |
| COc1ccccc1N1CCN(CCCCNC(=O)c2ccc(-c3ccc(C(C)=O)cc3)cc2)CC1 [NCGC00025004-04] | > 33.33 | – |
| C[C@@H](C1=C(CCN(C)C)Cc2ccccc21)c1ccccn1.O=C(O)/C=C\C(=O)O [NCGC00025158-02] | 8.4103 | – |
